Assay [1] relates to rat anterior pituitary cells in primary culture. The settings on record: cited from earlier work; for activities to release LH compared with LHRH (Table I): fraction of the activities of LHRH or words; for activity (potency) to release LH relative to P/O LHRH: in vitro, rat pituitary cells, Sherwood et al. (a), Miyamoto et al. (b).
In assay [2] the test system is release of LH. Kind of assay: Release of LH in rats after sc injection. The settings on record: for release of LH: in our assays; for release of LH compared with LHRH: sc injection, dose and time as stated in the source. The class given is in vivo. An excerpt: (§1) The data on the release of LH and FSH in rats by modifications of LHRH with one structural change are in Table II.
(§2) Exclusive of the salmon-LHRH, only one of the six decapeptides with two structural changes had significant activity.

The test system of assay [3] is release of FSH. Kind of assay: Release of FSH in rats after sc injection. The class given is in vivo. The settings on record: for FSH % change: LHRH = 100; for release of FSH: in our assays.
Source text: as §1, §2

Assay [4] has as its system rat pituitary cells. Particulars: cited from earlier work; for activities to release FSH compared with LHRH (Table I): fraction of the activities of LHRH or words.
The subject of assay [5] is release of FSH. The assay is described as follows: Release of FSH in rats after sc injection. The class given is in vivo. Particulars: dose and time as stated in the source.
For assay [6] the following is noted: relative to LHRH; cited from earlier work.
For assay [7] the following is noted: relative to LHRH; cited from earlier work. The source holds these as a separate data set.
[8] abbreviates: 30 min. after sc injection, 1000 ng, LHRH = 100.
[9] abbreviates: 60 min. after sc injection, 3000 ng, LHRH = 100.
Where [10] appears, read: release 30 min. after sc injection, dosage of peptide 100 ng.
Setting [11] is: release 30 min. after sc injection, dosage of peptide 1000 ng.
Where [12] appears, read: release 60 min. after sc injection, dosage of peptide 300 ng.
The mark [13] stands for this setting: release 60 min. after sc injection, dosage of peptide 3000 ng.
[14] abbreviates: 60 min. after sc injection, 3000 ng.
The mark [15] stands for this setting: 15 min. after sc injection, 100 ng, experiment marked *.
Setting [16] is: 15 min. after sc injection, 1000 ng, experiment marked *.
[17] abbreviates: release 15 min. after sc injection, dosage of peptide 50 ng.
The mark [18] stands for this setting: release 15 min. after sc injection, dosage of peptide 100 ng.
The mark [19] stands for this setting: release 15 min. after sc injection, dosage of peptide 1000 ng.
Setting [20] is: release 30 min. after sc injection, dosage of peptide 50 ng.

Several values for one entry are separate records, joined by “and”; a condition that tells them apart may be missing. Equal values may be shown once. Entries after “also recorded” stand apart in the source; their conditions may differ. Non-standard residues stand in square brackets, D forms with d. Residues, ends and D or L forms follow the SMILES beside them. pGlu = O=C1CC[C@@H](C(=O)O)N1

On to `NC(=O)CNC(=O)[C@@H]1CCCN1C(=O)[C@H](Cc1ccc(O)cc1)NC(=O)[C@H](Cc1c[nH]c2ccccc12)NC(=O)CNC(=O)[C@H](Cc1c[nH]cn1)NC(=O)[C@H](CO)NC(=O)[C@H](Cc1c[nH]c2ccccc12)NC(=O)[C@H](Cc1c[nH]cn1)NC(=O)[C@@H]1CCC(=O)N1` [[His^5 Trp^7 Tyr^8] (Chicken II), pGlu--His--Trp--Ser--His--Gly--Trp--Tyr--Pro--Gly--NH2, reference compound] ([pGlu]HWSHGWYPG-NH2), for which, in assay [1], the “activities to release LH compared with LHRH (Table I)” value is on record as “about 1/3”. For the same molecule, the “activity (potency) to release LH relative to P/O LHRH” value in assay [1] is given as 32%. The LH % change in assay [2] (30 min. after sc injection, 100 ng, LHRH = 100) is 18%; in assay [2] (setting [8]), 39%; in assay [2] (60 min. after sc injection, 300 ng, LHRH = 100), 32%; in assay [2] (setting [9]), 10%. The figures for the “release of LH” value in assay [2] (dose level 100 ng) and in assay [2] (dose level 1000 ng) were 18% and 30%, respectively. Moreover, the LH came out at 2 ng/mL in assay [2] (setting [10]), 14 ng/mL in assay [2] (setting [11]), 3.5 ng/mL in assay [2] (setting [12]) and 8.4 ng/mL in assay [2] (setting [13]). For the same molecule, the FSH % change worked out at 62% in assay [3] (30 min. after sc injection, 100 ng); 58% in assay [3] (60 min. after sc injection, 300 ng); 55% in assay [3] (setting [14]). For the same molecule, the results for the “release of FSH” value in assay [3] (dose level 100 ng) and in assay [3] (dose level 1000 ng) were 62% and 86%, respectively. For the same molecule, the FSH is 305 ng/mL in assay [3] (setting [10]), 596 ng/mL in assay [3] (setting [11]), 344 ng/mL in assay [3] (setting [12]) and 644 ng/mL in assay [3] (setting [13]). Besides, the “activities to release FSH compared with LHRH (Table I)” value in assay [4] is reported as “about 1/3”. In assay [4] (in vitro, rat pituitary cells, Miyamoto et al. (b)), the “activity to release FSH relative to P/O LHRH” value was 41%.

In the case of `N=C(N)NCCC[C@H](NC(=O)[C@H](Cc1c[nH]c2ccccc12)NC(=O)CNC(=O)[C@H](Cc1c[nH]cn1)NC(=O)[C@H](CO)NC(=O)[C@H](Cc1c[nH]c2ccccc12)NC(=O)[C@H](Cc1c[nH]cn1)NC(=O)[C@@H]1CCC(=O)N1)C(=O)N1CCC[C@H]1C(=O)NCC(N)=O` [[His^5 Trp^7]--LHRH, p-Glu His Trp Ser His Gly Trp Arg Pro Gly-NH2] ([pGlu]HWSHGWRPG-NH2), the LH % change in assay [2] (15 min. after sc injection, 50 ng, LHRH = 100) is recorded as 188%; in assay [2] (15 min. after sc injection, 1000 ng, experiment marked *, LHRH* = 100), 59%; in assay [2] (30 min. after sc injection, 50 ng, LHRH = 100) it was 67%; in assay [2] (setting [8]) it was 40%. In addition, the LH was 13 ng/mL in assay [2] (setting [15]); 23 ng/mL in assay [2] (setting [16]); 30 ± 3 ng/mL in assay [2] (setting [17]); 30 ng/mL in assay [2] (setting [18]); 39 ng/mL and 78 ng/mL in assay [2] (setting [19]); 12 ng/mL in assay [2] (setting [20]). For the same molecule, the LH was determined as 51 ng/mL in assay [2] (setting [11]), 26.0 ng/mL in assay [2] (setting [12]) and 138 ng/mL in assay [2] (setting [13]). The “release of LH compared with LHRH” value in assay [2] is “as active as LHRH; also recorded: significantly positive, but less than that at the higher dosage; also recorded: released significantly more LH and FSH than did LHRH at a dosage of 50 ng; also recorded: equivalent to that released by the same dosage of LHRH; also recorded: significantly positive, but lower than that released at the higher dose level; also recorded: both peptides had comparable activities”. This molecule also yielded an FSH % change in assay [3] (15 min. after sc injection, 50 ng) of 121%. Moreover, the FSH in assay [3] (setting [15]) was 346 ng/mL; in assay [3] (setting [16]), 456 ng/mL; in assay [3] (setting [17]), 663 ng/mL; in assay [3] (setting [18]) it was 502 ng/mL; in assay [3] (setting [19]) it was 562 ng/mL and 429 ng/mL; in assay [3] (setting [20]) it was 387 ng/mL. The FSH in assay [3] (setting [11]) was 857 ng/mL; in assay [3] (setting [12]), 624 ng/mL; in assay [3] (setting [13]), 1448 ng/mL. In assay [5], the “release of FSH compared with LHRH” value is “as active as LHRH; also recorded: equivalent to that from LH; also recorded: released significantly more LH and FSH than did LHRH at a dosage of 50 ng; also recorded: equivalent to that released by the same dosage of LHRH; also recorded: higher than that for LH; also recorded: both peptides had comparable activities”.

For the molecule `CC(C)C[C@H](NC(=O)CNC(=O)[C@H](Cc1c[nH]cn1)NC(=O)[C@H](CO)NC(=O)[C@H](Cc1c[nH]c2ccccc12)NC(=O)[C@H](Cc1c[nH]cn1)NC(=O)[C@@H]1CCC(=O)N1)C(=O)N[C@@H](CCCNC(=N)N)C(=O)N1CCC[C@H]1C(=O)NCC(N)=O` [[His^5]--LHRH, p-Glu His Trp Ser His Gly Leu Arg Pro Gly-NH2], the LH in assay [2] (setting [12]) was 14 ng/mL; in assay [2] (setting [13]) it was 142 ± 29 ng/mL and 142 ng/mL. Besides, the “release of LH compared with LHRH” value in assay [2] is “as active as LHRH at two dose levels; also recorded: equivalent to LHRH in the release of LH”. This molecule came in with an FSH % change in assay [3] (setting [14]) of 229%. The FSH in assay [3] (setting [12]) was 652 ng/mL; in assay [3] (setting [13]), 2684 ng/mL. Also, the “release of FSH compared with LHRH” value in assay [5] is recorded as “twice as active as LHRH at the high dosage; also recorded: two times as effective in the release of FSH at the higher dose level”.

Turning to `CC(C)C[C@H](NC(=O)[C@H](Cc1c[nH]c2ccccc12)NC(=O)CNC(=O)[C@H](Cc1ccc(O)cc1)NC(=O)[C@H](CO)NC(=O)[C@H](Cc1c[nH]c2ccccc12)NC(=O)[C@H](Cc1c[nH]cn1)NC(=O)[C@@H]1CCC(=O)N1)C(=O)N1CCC[C@H]1C(=O)NCC(N)=O` [[Trp^7 Leu^8]--LHRH, pGlu--His--Trp--Ser--Tyr--Gly--Trp--Leu--Pro--Gly--NH2, reference compound] ([pGlu]HWSYGWLPG-NH2), in assay [1], the “activities to release LH compared with LHRH (Table I)” value is reported as “extremely low activities” and the “activity (potency) to release LH relative to P/O LHRH” value is listed as 2-3%. For the same molecule, in assay [2] (setting [9]), the LH % change is given as 3.0%. For the same molecule, the LH in assay [2] (setting [13]) turned out to be 2.5 ng/mL. Besides, the FSH % change in assay [3] (setting [14]) is on record as 22%. For the same molecule, in assay [3] (setting [13]), the FSH was 258 ng/mL. Besides, the “activities to release FSH compared with LHRH (Table I)” value in assay [4] is reported as “extremely low activities”.

Consider `N=C(N)NCCC[C@H](NC(=O)[C@H](Cc1c[nH]c2ccccc12)NC(=O)CNC(=O)[C@H](Cc1ccc(O)cc1)NC(=O)[C@H](CO)NC(=O)[C@H](Cc1c[nH]c2ccccc12)NC(=O)[C@H](Cc1c[nH]cn1)NC(=O)[C@@H]1CCC(=O)N1)C(=O)N1CCC[C@H]1C(=O)NCC(N)=O` [[Trp^7]--LHRH, p-Glu His Trp Ser Tyr Gly Trp Arg Pro Gly-NH2], for which the LH is 14.5 ng/mL in assay [2] (setting [12]); 115 ± 19 ng/mL and 115 ng/mL in assay [2] (setting [13]). Further, the “release of LH compared with LHRH” value in assay [2] is “as active as LHRH at two dose levels; also recorded: equivalent to LHRH in the release of both LH and FSH”. In addition, the “agonist activity in vivo” value in assay [6] was 80%. Further, the FSH in assay [3] (setting [12]) turned out to be 543 ng/mL; in assay [3] (setting [13]) it was 1259 ng/mL. Also, the “release of FSH compared with LHRH” value in assay [5] was “as active as LHRH; also recorded: equivalent to LHRH in the release of both LH and FSH”.

For [3(2-Nal)^3 ]-LHRH, in assay [7], the “agonist activity in vitro, as active as LHRH” value (“agonist activity in vitro” below) is reported as 200%.

Turning to “[Ala^9 ]-LHRH (QHWSYGLRAG; Gonadoliberin-1; UniProt P01148 24-33, looked up, variant P9A) [literature agonist analog of LHRH]”, the “agonist activity in vitro” value in assay [7] was 65%.

With [N-MeLeu^7 ]-LHRH, the “agonist activity in vitro” value in assay [7] is listed as 100%.

On to “[Phe^5 ]-LHRH (QHWSFGLRPG; Gonadoliberin-1; UniProt P01148 24-33, looked up, variant Y5F) [literature agonist analog of LHRH, reference compound]”, for which the “agonist activity in vivo” value in assay [6] is listed as 64%.

These data come from patent US4721775A, “Effective peptides related to the luteinizing hormone releasing hormone from L-amino acids” (Board of Regents, The University of Texas System, priority 1985, dated 1988).
